{
  "source": "paper PMC3288053",
  "about": "(PLoS ONE, 2012)",
  "molecules": {"B1": {"name": "Steroid receptor coinducer-1 fragment SRC1(613-773), His-tagged, purified (domain or fragment, human, UniProt Q15788 613-773, looked up)", "chain": "LHNNDRLSDGDSKYSQTSHKLVQLLTTTAEQQLRHADIDTSCKDVLSCTGTSNSASANSSGGSCPSSHSSLTERHKILHRLLQEGSPSDITTLSVEPDKKDSASTSVSVTGQVQGNSSIKLELDASKKKESKDHQLLRYLLDKDEKDLRSTPNLSLDDVKV", "notes": "plasmid pET15b-SRC1(613-773); Human cDNA is stated as template for the two-hybrid SRC1(613-773) clone; source: E. coli BL21 (DE3), purified (His-tag purification, Novagen instructions)"}},
  "key": {"CHO-K1/GLUT4 cells": {"test_system": "CHO-K1/GLUT4 cells", "assay": "Quantification of GLUT4 translocation ratio (IN Cell Analyzer 1000)", "format": "cell-based", "details": "for EC50: serum-starved cells, read-out: EC50, membrane GLUT4 (GLUT4 translocation)", "method": "CHO-K1 cells are transfected with pEGFPN1-GLUT4-myc plasmid using Lipofectamine 2000, and subsequently screened with G418 (800 µg/ml). The CHO-K1/GLUT4 stable cell line is obtained by picking up clones.\nCHO-K1/GLUT4 cells are seeded into 96-well plate. After cells reached 100% confluence, F12 medium is changed to 3T3-L1 medium and incubated for 2 days. 8-hour serum starvation later, cells are stimulated with insulin for 5 minutes, fixed with 3.7% formaldehyde for 15 minutes, and labeled with anti-myc monoclonal antibody and secondary antibody (Alexa Fluor 647 conjuncted anti-mouse antibody). Fluorescence pictures were obtained by IN Cell Analyzer 1000 Instrument (GE Healthcare) with the same exposure time. The basic unit comprises several core components including a Nikon microscope and a high-resolution CCD camera. Membrane-located GLUT4 is represented by the intensity of red fluorescence (Alex fluor 647) and normalized by the intensity of green fluorescence (GLUT4-EGFP), which is assigned to the total GLUT4 [46]."}, "3T3-L1 adipocytes": {"test_system": "3T3-L1 adipocytes", "assay": "2-Deoxyglucose uptake in 3T3-L1 adipocytes", "format": "cell-based", "details": "insulin 17 nM; Rut 5–25 µM, C2 10 µM", "method": "3T3-L1 adipocytes are fully differentiated (the 10th day after MDI stimulation) and seeded into 24-well plate. After incubation with compounds in serum-free medium containing 0.5% BSA for 8 hours, medium is changed to Krebs buffer containing […] insulin and incubated for 30 minutes. In the last 5 minutes, cells are incubated with 2-[^3H]-deoxy-D-glucose. The glucose uptake is stopped by ice-cold PBS, and the cells are then lysed with 0.1% Triton. Finally the radioactivity is calculated by a scintillation counter. Cytochalasin B is used to measure nonspecific uptake, and the value is subtracted from all the data. Radioactivity is normalized by total protein concentration that is measured by BCA kit."}, "CD45": {"biological_target": "T1, CD45 (Homo sapiens, UniProt P08575)", "T1 construct": "pGEX2T-CD45_560–1256; GST (N); made in house; host or cells: E. coli BL21 (DE3)", "T1 sequence (P08575 610-1306 limits assumed)": "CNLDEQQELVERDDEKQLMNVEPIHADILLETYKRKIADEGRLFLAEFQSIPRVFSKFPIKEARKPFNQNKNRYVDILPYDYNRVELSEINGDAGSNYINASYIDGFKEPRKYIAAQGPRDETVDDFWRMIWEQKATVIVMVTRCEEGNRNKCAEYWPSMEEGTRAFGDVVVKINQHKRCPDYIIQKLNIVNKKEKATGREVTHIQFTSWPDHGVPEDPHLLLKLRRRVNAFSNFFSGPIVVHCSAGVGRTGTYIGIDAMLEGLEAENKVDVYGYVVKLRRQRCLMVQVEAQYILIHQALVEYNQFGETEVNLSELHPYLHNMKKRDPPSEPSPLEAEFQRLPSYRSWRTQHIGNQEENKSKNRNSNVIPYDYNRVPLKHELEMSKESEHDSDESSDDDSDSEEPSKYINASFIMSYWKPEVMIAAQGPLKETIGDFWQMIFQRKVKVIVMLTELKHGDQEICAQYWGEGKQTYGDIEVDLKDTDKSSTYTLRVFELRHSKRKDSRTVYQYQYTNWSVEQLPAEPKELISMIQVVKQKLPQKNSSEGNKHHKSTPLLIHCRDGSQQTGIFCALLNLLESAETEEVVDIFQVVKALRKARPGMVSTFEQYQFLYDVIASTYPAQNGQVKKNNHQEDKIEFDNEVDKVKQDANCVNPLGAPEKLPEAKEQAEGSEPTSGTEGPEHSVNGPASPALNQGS", "assay": "PTP enzyme inhibition assay (pNPP substrate)", "format": "biochemical", "details": "PTPs 0.3 µM, pNPP 5 mM, 25°C; NI: No inhibition at 100 µM", "method": "(§1) The enzymatic activities of the recombinant PTPs are measured at 25°C using pNPP as substrate. The initial velocities of enzymatic reactions are determined by continuously measuring the absorbance at 405 nm every 15 s using a microplate spectrophotometer (Bio-Rad). […] To determine the inhibition type, each concentration of Rut (0, 50 and 75 µM) is incubated with PTP1B (0.3 µM) in reaction buffer (50 mM HEPES, pH7.0, 1 mM EDTA, and 100 mM NaCl) for 10 min and the reactions are initiated by different concentrations of pNPP (0.5–10 mM). The inhibition type is determined using double-reciprocal plots. In determination of the selectivity of Rut against PTPs, the result is referred as no inhibition when 100 µM Rut inhibits no enzyme activity. The same reaction systems are designed for all PTPs including PTP1B."}, "PTPα": {"biological_target": "T2, PTPα (Homo sapiens, UniProt P18433)", "T2 construct": "pGEX2T-PTPα182–803; GST (N); made in house; host or cells: E. coli BL21 (DE3)", "assay": "PTP enzyme inhibition assay (pNPP substrate)", "format": "biochemical", "details": "PTPs 0.3 µM, pNPP 5 mM, 25°C; NI: No inhibition at 100 µM; read-out: IC50 PTPα", "method": "as §1"}, "TC-PTP": {"biological_target": "T3, TC-PTP (Homo sapiens, UniProt P17706)", "T3 construct": "pGEX4T-1-TC-PTP1–288; GST (N); made in house; host or cells: E. coli BL21 (DE3)", "T3 sequence (P17706 1-288)": "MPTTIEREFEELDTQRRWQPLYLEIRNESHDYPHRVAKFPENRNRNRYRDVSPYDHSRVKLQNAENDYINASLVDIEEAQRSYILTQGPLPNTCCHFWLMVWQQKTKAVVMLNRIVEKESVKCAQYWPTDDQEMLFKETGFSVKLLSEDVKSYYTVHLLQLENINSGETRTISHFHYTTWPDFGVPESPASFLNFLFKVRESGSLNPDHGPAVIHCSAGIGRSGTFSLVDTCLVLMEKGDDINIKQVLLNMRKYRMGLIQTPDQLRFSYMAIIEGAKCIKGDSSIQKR", "assay": "PTP enzyme inhibition assay (pNPP substrate)", "format": "biochemical", "details": "PTPs 0.3 µM, pNPP 5 mM, 25°C; NI: No inhibition at 100 µM", "method": "as §1"}, "PTP1B": {"biological_target": "T4, PTP1B (Homo sapiens, UniProt P18031)", "T4 construct": "pGEX4T-1-PTP1B1–321; GST (N); made in house; host or cells: E. coli BL21 (DE3)", "T4 sequence (P18031 1-321)": "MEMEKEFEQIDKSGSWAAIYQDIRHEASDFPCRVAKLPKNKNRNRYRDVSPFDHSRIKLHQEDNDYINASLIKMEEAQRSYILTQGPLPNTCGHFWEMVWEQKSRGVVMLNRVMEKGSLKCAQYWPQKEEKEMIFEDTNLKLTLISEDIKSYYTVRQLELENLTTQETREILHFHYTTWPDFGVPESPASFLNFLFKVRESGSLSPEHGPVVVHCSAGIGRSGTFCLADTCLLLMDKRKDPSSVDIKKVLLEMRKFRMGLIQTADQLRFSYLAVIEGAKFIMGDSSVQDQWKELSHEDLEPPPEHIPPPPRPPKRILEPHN", "assay": "PTP enzyme inhibition assay (pNPP substrate)", "format": "biochemical", "details": "PTPs 0.3 µM, pNPP 5 mM, 25°C; NI: No inhibition at 100 µM", "method": "as §1"}, "LAR": {"biological_target": "T5, LAR (Homo sapiens, UniProt P10586)", "T5 construct": "pGEX2T-LAR1282–1888; GST (N); made in house; host or cells: E. coli BL21 (DE3)", "T5 sequence (P10586 1301-1907 limits assumed)": "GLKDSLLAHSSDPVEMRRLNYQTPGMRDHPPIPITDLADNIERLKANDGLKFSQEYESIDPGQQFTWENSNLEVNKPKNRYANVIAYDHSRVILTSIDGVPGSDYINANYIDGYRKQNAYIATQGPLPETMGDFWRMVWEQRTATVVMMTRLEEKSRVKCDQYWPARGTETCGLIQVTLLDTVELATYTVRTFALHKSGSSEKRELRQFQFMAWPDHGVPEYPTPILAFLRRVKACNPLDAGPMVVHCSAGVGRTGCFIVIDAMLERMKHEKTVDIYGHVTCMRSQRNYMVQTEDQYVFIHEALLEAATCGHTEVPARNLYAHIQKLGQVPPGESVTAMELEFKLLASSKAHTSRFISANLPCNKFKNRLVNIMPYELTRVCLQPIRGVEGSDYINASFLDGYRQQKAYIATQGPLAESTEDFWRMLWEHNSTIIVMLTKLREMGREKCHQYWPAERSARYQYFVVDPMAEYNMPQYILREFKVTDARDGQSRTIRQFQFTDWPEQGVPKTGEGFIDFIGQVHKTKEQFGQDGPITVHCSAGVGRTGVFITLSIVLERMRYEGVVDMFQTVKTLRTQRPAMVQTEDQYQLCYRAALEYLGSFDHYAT", "assay": "PTP enzyme inhibition assay (pNPP substrate)", "format": "biochemical", "details": "PTPs 0.3 µM, pNPP 5 mM, 25°C; NI: No inhibition at 100 µM; read-out: IC50 LAR", "method": "as §1"}, "[1]": {"biological_target": "T6, Retinoid X receptor α ligand-binding domain (RXRα-LBD), His-tagged, purified (human, UniProt P19793 229-458)", "T6 construct": "also called hRXRα-LBD; source: E. coli BL21 (DE3), purified (His-tag purification, Novagen instructions)", "T6 sequence": "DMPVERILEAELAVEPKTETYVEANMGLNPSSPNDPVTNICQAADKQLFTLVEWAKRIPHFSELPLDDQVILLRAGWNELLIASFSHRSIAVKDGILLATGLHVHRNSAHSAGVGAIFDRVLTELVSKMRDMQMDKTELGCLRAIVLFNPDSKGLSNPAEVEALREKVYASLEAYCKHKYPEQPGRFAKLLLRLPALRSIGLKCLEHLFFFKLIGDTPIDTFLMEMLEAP", "assay": "SPR; Biacore 3000; purified SRC1(613-773) immobilised on a CM5 chip by amine coupling; different concentrations of PPARγ-LBD or RXRα-LBD injected at 20 µL/min for 60 s, dissociation 120 s; running buffer 10 mM HEPES, 150 mM NaCl, 3 mM EDTA, 0.005% P20, pH 7.4; also 1 µM LBD pre-incubated for 1 h with Rut (16.8-100 µM)", "details": "both partners purified"}, "[2]": {"biological_target": "T7, Peroxisome proliferator-activated receptor γ ligand-binding domain PPARγ-LBD(202-477), His-tagged, purified (human, UniProt P37231-2 202-477)", "T7 construct": "also called hPPARγ-LBD; source: E. coli BL21 (DE3), purified (His-tag purification, Novagen instructions)", "T7 sequence (looked up)": "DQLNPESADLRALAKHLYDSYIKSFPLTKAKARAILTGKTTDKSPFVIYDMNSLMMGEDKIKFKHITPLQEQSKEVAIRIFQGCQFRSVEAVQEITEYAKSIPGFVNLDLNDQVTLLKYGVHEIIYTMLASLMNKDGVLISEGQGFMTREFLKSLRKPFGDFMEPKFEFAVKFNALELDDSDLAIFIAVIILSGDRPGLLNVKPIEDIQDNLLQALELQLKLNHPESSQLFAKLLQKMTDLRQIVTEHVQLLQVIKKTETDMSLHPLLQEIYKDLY", "assay": "SPR; Biacore 3000; purified SRC1(613-773) immobilised on a CM5 chip by amine coupling; different concentrations of PPARγ-LBD or RXRα-LBD injected at 20 µL/min for 60 s, dissociation 120 s; running buffer 10 mM HEPES, 150 mM NaCl, 3 mM EDTA, 0.005% P20, pH 7.4; also 1 µM LBD pre-incubated for 1 h with Rut (16.8-100 µM)", "details": "both partners purified"}},
  "note": "Like-named read-outs stand apart in the source and are kept apart here.",
  "data": [
    {"molecule": "COC[C@H]1OC(=O)c2coc3c2[C@@]1(C)C1=C(C3=O)[C@@H]2CCC(=O)[C@@]2(C)C[C@H]1OC(C)=O", "note": "[wortmannin, reference compound]", "values": [
      {"measurement": "effect on Rut or insulin-stimulated GLUT4 translocation", "setting": "CHO-K1/GLUT4 cells; wortmannin 1 µM, Rut 20 µM or insulin 170 nM", "value": "completely inhibits"}
    ]},
    {"molecule": "insulin: insulin used as stimulus in cellular GLUT4 translocation assay", "values": [
      {"measurement": "insulin-stimulated GLUT4 translocation over the basal", "setting": "CHO-K1/GLUT4 cells; IN Cell 1000 analyzer based system", "value": "around 1.5 fold"},
      {"measurement": "EC50", "setting": "CHO-K1/GLUT4 cells; insulin 5 min", "value": 100, "unit": "nM"}
    ]},
    {"molecule": "pervanadate [reference compound]", "values": [
      {"measurement": "EC50", "setting": "CHO-K1/GLUT4 cells; pervanadate 30 min", "value": 51000, "unit": "nM"},
      {"measurement": "insulin-induced glucose uptake", "setting": "3T3-L1 adipocytes", "value": "increase the insulin-stimulated glucose uptake"},
      {"measurement": "IC50", "setting": "CD45", "value": 6, "unit": "nM"},
      {"measurement": "IC50", "setting": "PTPα", "value": 59, "unit": "nM"},
      {"measurement": "IC50", "setting": "TC-PTP", "value": 36, "unit": "nM"},
      {"measurement": "IC50", "setting": "PTP1B", "value": 15, "unit": "nM"},
      {"measurement": "IC50", "setting": "LAR", "value": 26, "unit": "nM"}
    ]},
    {"molecule": "B1", "values": [
      {"measurement": "Kd", "setting": "[1]", "value": 1160, "unit": "nM"},
      {"measurement": "binding result", "setting": "[2]", "value": "binds"}
    ]}
  ]
}
